Entries after “also recorded” stand apart in the source; their conditions may differ.
System: RAW264.7 cells
Assay: RAW264.7 cells stimulated with LPS or poly I:C: phosphorylation (immunoblot)
Assay type: cell-based
Conditions: for LPS or poly I:C-stimulated phosphorylation of IRF3: LPS 0.5 μg/ml or poly I:C 50 μg/ml; for phosphorylation of TBK1 on serine 172: LPS or poly I:C stimulated
Protocol: 3T3-L1 fibroblasts (American Type Culture Collection, Manassas, Va.) were cultured and differentiated using standard methods known in the art. […] 3T3-L1 adipocytes were serum starved with 0.5% fetal bovine serum (FBS) in Dulbecco's modified eagle medium (DMEM) prior to treatment. TNFα treatments (50 ng/mL unless otherwise noted) were performed during the 24 hour prior to harvest, after pretreatment with IKKβ inhibitor compound VIII (EMD Biosciences, Philadelphia, Pa.) for 1 hour where indicated. […] Cells were treated with or without 10 nM of insulin for 15 minutes. RAW264.7 cells were serum starved with 0.5% FBS DMEM media and pre-treated with or without Cay-10576 (Cayman Chemical, Ann Arbor, Mich.). The cells were then treated with LPS (0.5 μg/ml) or poly I:C (50 μg/ml) for 1 hour. Cells were harvested for total RNA and analyzed by real-time PCR Cell lysates were resolved on SDS-PAGE and analyzed by immunoblot using the indicated antibodies.

In the case of COc1cc2ncn(-c3cc(OCc4ccccc4S(C)(=O)=O)c(C#N)s3)c2cc1OC [Cay-10576], the “LPS or poly I:C-stimulated phosphorylation of IRF3” value is reported as “blocked”, the “LPS or poly I:C-stimulated phosphorylation of IRF3” value (listed as cayman) is reported as “reverses” and the “phosphorylation of TBK1 on serine 172” value is reported as “stimulated”. The “phosphorylation of TBK1 on serine 172” value (listed as cayman) was “inducing” and the IKKβ phosphorylation (listed as cayman) was “increased; also recorded: inducing”.

— patent publication US10245255B2, “Compositions and methods for the treatment of obesity and related disorders” (THE REGENTS OF THE UNIVERSITY OF MICHIGAN, priority 2011, dated 2019)
